# Laboratory results published in article PMC2834284 (Journal of medicinal chemistry, 2010).
# “Also recorded” adds a separate entry of the source.
# Experiments:
# [1] = test system: Cryptococcus neoformans ATCC 90113; assay: In vitro antimicrobial assay, C. neoformans; format: cell-based; conditions: ATCC90113, read-out: C. neoformans IC50
# [2] = test system: Plasmodium falciparum (W2 clone); assay: In vitro antimalarial assay; format: cell-based; conditions: W2, 72 h, read-out: P. falciparum (W2 clone) IC50
# [3] = test system: Plasmodium berghei infected mice; assay: In vivo antimalarial assay, multiple oral dose; conditions: 3×5 mg/Kg
# [4] = test system: Plasmodium falciparum (D6 clone); assay: In vitro antimalarial assay; format: cell-based; conditions: for IC50: Plasmodium falciparum, D6, 72 h, read-out: P. falciparum (D6 clone) IC50
# [5] = test system: mice inoculated with P. berghei; assay: Initial in vivo evaluation; conditions: 3×10 mg/kg P.O.
# [6] = test system: Mycobacterium intracellulare ATCC 23068; assay: In vitro antimicrobial assay, M. intracellulare; format: cell-based; conditions: ATCC23068, read-out: M. intracellulare IC50
# [7] = test system: Mycobacterium tuberculosis; conditions: cited from earlier work
# [8] = test system: Candida albicans ATCC 90028; assay: In vitro antimicrobial assay, C. albicans; format: cell-based; conditions: ATCC90028, read-out: C. albicans IC50
# [9] = test system: rat neonatal microglia; assay: Microglia LDH release; format: cell-based; conditions: for cytotoxicity (lactate dehydrogenase release) at highest concentration tested: 10 μM; for LDH LDH50: concentration causing 50% of maximal LDH release triggered by 0.1% Triton X-100
# [10] = in vitro; conditions: dog, MDCK-MDR1, pH 7.4
# [11] = test system: mice infected with malarial parasites; assay: In vivo antimalarial assay, intraperitoneal administration; conditions: for toxicity / adverse reactions: i.p. 10×3 mg/kg in infected mice; for Cure (number of mice without parasitemia through day 28 post infection): of 5 mice
# [12] = test system: GSK-3β; conditions: panel of CDK-1, PKA, CDK-5, MAPK, GSK-3α; cited from earlier work
# [13] = test system: methicillin-resistant Staphylococcus aureus; conditions: cited from earlier work
# [14] = test system: Staphylococcus aureus; conditions: cited from earlier work
# [15] = test system: malarial parasites in mice; conditions: oral administration 2×100 μmol/Kg; cited from earlier work
# [16] = test system: CDK-5; conditions: panel of CDK-1, PKA, CDK-5, MAPK, GSK-3α; cited from earlier work
# [17] = test system: M. tuberculosis (H37Rv); assay: In vitro activity against M. tuberculosis; format: cell-based; conditions: Mycobacterium tuberculosis, read-out: M. tuberculosis (H37Rv) MIC
# [18] = Stability in aqueous solution; format: physicochemical; conditions: over twenty-four months, exposure to light, room temperature, 0.05 N HCl aqueous solution (20 mg/mL)
# [19] = test system: Plasmodium berghei infected mice; assay: In vivo antimalarial assay, oral single dose
# [20] = test system: Vero cells; conditions: African green monkey
# [21] = i.p. 10×3 mg/kg, mean parasitemia in control group as 100%
compound,measurement,setting,value
"C[C@@H]1[C@H](O)[C@@H](C)/C=C/C=C/C=C/C=C/C=C/C=C/C=C/[C@H](O[C@@H]2O[C@H](C)[C@@H](O)[C@H](N)[C@@H]2O)C[C@@H]2O[C@](O)(C[C@@H](O)C[C@@H](O)[C@H](O)CC[C@@H](O)C[C@@H](O)CC(=O)O[C@H]1C)C[C@H](O)[C@H]2C(=O)O [Amphotericin B, reference compound]",IC50,[1],0.75 µg/mL
"C[C@@H]1CC[C@H]2[C@@H](C)C(=O)O[C@@H]3O[C@@]4(C)CC[C@@H]1[C@]32OO4 [Artemisinin, reference compound]",IC50,[2],0.008 µg/mL
CCN(CC)CCCC(C)Nc1ccnc2cc(Cl)ccc12 (centres unmarked) [Chloroquine],MST Days,[3],> 30 days
same,Inhibition of Parasitemia (%),[3]; day 5 post infection vs untreated controls,88%
same,Average % Parasitemia,[3]; day 7 post infection,4.5%
same,Average % Parasitemia,[3]; day 10 post infection,7.8%
same,Average % Parasitemia,[3]; day 14 post infection,13.5%
same,Average % Parasitemia,[3]; day 21 post infection,21.7%
same,Average % Parasitemia,[3]; day 28 post infection,39.3%
same,IC50,[4],0.016 µg/mL
same,IC50,[2],0.155 µg/mL
same,mean survival time,[5],14.3 days
"O=C(O)c1cn(C2CC2)c2cc(N3CCNCC3)c(F)cc2c1=O [Ciprofloxacin, reference compound]",IC50,[6],0.3 µg/mL
"O[C@]12C=C(c3nccc4c3[nH]c3ccccc34)[C@@H]3CCN(CCCC/C=C\CC1)C[C@@]31C[C@@H]3/C=C\CCCCN3[C@H]12 [Compound 1, manzamine A]",inhibition of Mycobacterium tuberculosis,[7],98-99%
same,IC50,[8],2 µg/mL
same,IC50,[4],0.0045 µg/mL
same,cytotoxicity (lactate dehydrogenase release) at highest concentration tested,[9],minimal cytotoxicity
same,LDH LDH50,[9],>10 µM
same,"efflux ratio at 2 h, 50 μM",[10],< 1
same,Survival (number of animal survived day 28/total animal in group),[11]; i.p. 10×3 mg/kg,0/5
same,toxicity / adverse reactions,[11],toxic
same,%parasitemia suppression Day 5,[11]; [21],100%
same,Cure (number of mice without parasitemia through day 28 post infection),[11]; i.p. 10×3 mg/kg,0/5
same,inhibition of GSK-3β,[12],specifically inhibited
same,IC50 against methicillin-resistant Staphylococcus aureus,[13],0.7 µg/mL
same,IC50 against Staphylococcus aureus,[14],0.5 µg/mL
same,reduction in parasitemia,[15],90%
same,IC50,[2],0.008 µg/mL
same,IC50,[6],0.35 µg/mL
same,inhibition of CDK-5,[16],specifically inhibited
same,MIC,[17],1.5 µg/mL
same,IC50,[1],1.5 µg/mL
same,stability (decomposition) in aqueous solution,[18],No significant decomposition
same,behavioral signs of toxicity,[19]; single oral dose 100 mg/kg,did not show any behavioral signs of toxicity
same,signs of toxicity,[19]; single oral dose 200 or 300 mg/kg,began to exhibit signs of toxicity beyond weight loss
"Oc1cccc2c1[nH]c1c(C3=C[C@@]4(O)CC/C=C\CCCCN5CC[C@@H]3[C@]3(CC6/C=C\CCCCN6[C@H]34)C5)nccc12 (some centres unmarked) [Compound 2, 8-hydroxymanzamine A]",inhibition of Mycobacterium tuberculosis,[7],98-99%
same,IC50,[8],3.5 µg/mL
same,IC50,[4],0.006 µg/mL
same,Survival (number of animal survived day 28/total animal in group),[11]; i.p. 10×3 mg/kg,5/5
same,toxicity / adverse reactions,[11],mild reversible weight loss
same,MST (mean survival time),"[11]; i.p. 10×3 mg/kg, * death related to toxicity",> 28 days
same,%parasitemia suppression Day 5,[11]; [21],100%
same,%parasitemia suppression Day 7,[11]; [21],100%
same,Cure (number of mice without parasitemia through day 28 post infection),[11]; i.p. 10×3 mg/kg,4/5
same,reduction in parasitemia,[15],90%
same,IC50,[2],0.008 µg/mL
same,IC50,[6],0.1 µg/mL
same,IC50,[1],2 µg/mL
"O[C@]12C=C(c3nccc4c3[nH]c3ccccc34)[C@@H]3CCN(CCCCCCCC1)C[C@@]31C[C@@H]3CCCCCCN3[C@H]12 [Compound 3, 15,16,32,33-tetrahydromanzamine A]",IC50,[4],0.082 µg/mL
"O[C@]12C=C(c3nccc4c3[nH]c3ccccc34)[C@@H]3CCN(CCCC/C=C\CC1)C[C@@]31C[C@@H]3CCCCCCN3[C@H]12 [Compound 5, Dihydromanzamine A]",IC50,[4],0.2 µg/mL
"CCCCn1c2ccccc2c2ccnc(C3=C[C@@]4(O)CC/C=C\CCCCN5CC[C@@H]3[C@]3(C[C@@H]6/C=C\CCCCN6[C@H]34)C5)c21 [Compound 6d, 9N-butylmanzamine A]",cytotoxicity (lactate dehydrogenase release) at highest concentration tested,[9],minimal cytotoxicity; also recorded: no toxicity
same,LDH LDH50,[9],>10 µM
"CC(C)CCn1c2ccccc2c2ccnc(C3=C[C@@]4(O)CC/C=C\CCCCN5CC[C@@H]3[C@]3(C[C@@H]6/C=C\CCCCN6[C@H]34)C5)c21 [Compound 6f, 9N-isopentylmanzamine A]",LDH LDH50,[9],>10 µM
"CC(C)(C)Cn1c2ccccc2c2ccnc(C3=C[C@@]4(O)CC/C=C\CCCCN5CC[C@@H]3[C@]3(C[C@@H]6/C=C\CCCCN6[C@H]34)C5)c21 [Compound 6g, 9N-neopentylmanzamine A]",cytotoxicity (lactate dehydrogenase release) at highest concentration tested,[9],minimal cytotoxicity; also recorded: no toxicity
same,LDH LDH50,[9],>10 µM
"CC(=O)Oc1cccc2c1[nH]c1c(C3=C[C@@]4(O)CC/C=C\CCCCN5CC[C@@H]3[C@]3(C[C@@H]6/C=C\CCCCN6[C@H]34)C5)nccc12 [Compound 9, 8-Acetoxymanzamine A]",IC50,[8],1.5 µg/mL
same,IC50,[6],0.1 µg/mL
same,IC50,[1],1.5 µg/mL
"[O-][N+]12CCCC/C=C\CC[C@]3(O)C=C(c4nccc5c4[nH]c4ccccc45)[C@H](CC1)[C@]1(C[C@@H]4/C=C\CCCC[N@+]4([O-])[C@H]13)C2 [Compound 13, 21, 27-N-oxamanzamine A]",IC50,[4],0.017 µg/mL
same,IC50,[2],0.067 µg/mL
"O=C1CCCN2[C@@H](CC1)C[C@]13CN4CCCC/C=C\CC[C@](O)(C=C(c5nccc6c5[nH]c5c(O)cccc56)C1CC4)[C@H]23 (some centres unmarked) [Compound 14, manzamine F]",IC50,[4],0.78 µg/mL
same,IC50,[1],6.5 µg/mL
"N/N=C1/CCCN2[C@@H](CC1)C[C@]13CN4CCCC/C=C\CC[C@](O)(C=C(c5nccc6c5[nH]c5c(O)cccc56)[C@@H]1CC4)[C@H]23 [Compound 15, Manzamine F-31-hydrazone]",IC50,[4],0.029 µg/mL
same,no toxicity against Vero cells at the highest tested concentration,[20],> 4.6 µg/mL
"Oc1cccc2c1[nH]c1c(C3=C[C@@]4(O)CC/C=C\CCCCN5CC[C@@H]3[C@]3(C[C@@H]6CC[C@H](O)CCCN6[C@H]34)C5)nccc12 [Compound 16, 31β-Hydroxymanzamine F]",P. falciparum (D6 clone) IC50,"[4]; chloroquine sensitive D6 clone, 72 h",did not improve the antimalarial activity
"CC[C@@]1(O)CCCN2[C@@H](CC1)C[C@]13CN4CCCC/C=C\CC[C@](O)(C=C(c5nccc6c5[nH]c5c(O)cccc56)[C@@H]1CC4)[C@H]23 [Compound 18, 31-Ethylmanzamine F]",IC50,[2],0.086 µg/mL
same,no toxicity against Vero cells at the highest tested concentration,[20],> 4.6 µg/mL
"COc1ccc2[nH]c3c(C4=C[C@@]5(O)CC/C=C\CCCCN6CC[C@@H]4[C@]4(C[C@@H]7/C=C\CCCCN7[C@H]45)C6)nccc3c2c1 [Compound 21a, 6-Methoxymanzamine A]",cytotoxicity (lactate dehydrogenase release) at highest concentration tested,[9],minimal cytotoxicity; also recorded: no toxicity
same,LDH LDH50,[9],>10 µM
"COC(=O)c1cc2c([nH]c3ccccc32)c(C2=C[C@@]3(O)CC/C=C\CCCCN4CC[C@@H]2[C@]2(C[C@@H]5/C=C\CCCCN5[C@H]23)C4)n1 [Compound 21b, Methyl manzamine A-3-carboxylate]",cytotoxicity (lactate dehydrogenase release) at highest concentration tested,[9],minimal cytotoxicity; also recorded: no toxicity
same,LDH LDH50,[9],>10 µM
